Numbered stars: 1 amine (or outer) side, 2 acyl side, 3 side chain; on linkers, the order of the positions; unused ones are H or OH. Square brackets hold non-standard residues; d marks the D form. Peptide text beside a SMILES is read from it. ξ: configuration not given here. X1 = O=C([C@H]1CCC[C@@H]1N[*:1])[*:2]; X2 = O=C([C@H]1CNC[C@@H]1N[*:1])[*:2]; ξβ3hY = NC(CC(=O)O)Cc1ccc(O)cc1; β3hN = NC(=O)C[C@H](N)CC(=O)O; ξβ3hN = NC(=O)CC(N)CC(=O)O; ξβ3hL = CC(C)CC(N)CC(=O)O; ξβ3hK = NCCCCC(N)CC(=O)O; ξβ3hT = CC(O)C(N)CC(=O)O; ξβ3hV = CC(C)C(N)CC(=O)O; βAla = NCCC(=O)O
Columns and labels:
[1] = molecular target: T1, Vasoactive intestinal polypeptide receptor 2 (Homo sapiens, UniProt P41587); assay: Agonist activity at human VIPR2 expressed in CHOK1 cells assessed as intracellular cAMP accumulation after 60 mins by PathHunter assay; assay type: functional, cell-based
T1 sequence (P41587 whole entry): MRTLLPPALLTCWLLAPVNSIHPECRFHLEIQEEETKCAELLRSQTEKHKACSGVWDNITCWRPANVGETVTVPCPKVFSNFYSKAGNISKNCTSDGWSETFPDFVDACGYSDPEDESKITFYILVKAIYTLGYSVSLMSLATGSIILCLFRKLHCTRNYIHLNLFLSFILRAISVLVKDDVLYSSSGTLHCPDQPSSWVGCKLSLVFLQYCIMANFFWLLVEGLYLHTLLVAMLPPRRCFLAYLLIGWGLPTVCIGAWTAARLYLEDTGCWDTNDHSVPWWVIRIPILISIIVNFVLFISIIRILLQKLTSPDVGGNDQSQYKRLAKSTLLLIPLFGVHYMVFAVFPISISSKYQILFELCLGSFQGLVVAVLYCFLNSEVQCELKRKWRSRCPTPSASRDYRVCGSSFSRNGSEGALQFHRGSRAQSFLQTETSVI

[2] = molecular target: T2, Vasoactive intestinal polypeptide receptor 1 (Homo sapiens, UniProt P32241); assay: Agonist activity at human VIPR1 expressed in CHOK1 cells assessed as intracellular cAMP accumulation after 60 mins by PathHunter assay; assay type: functional, cell-based
T2 sequence (P32241 whole entry): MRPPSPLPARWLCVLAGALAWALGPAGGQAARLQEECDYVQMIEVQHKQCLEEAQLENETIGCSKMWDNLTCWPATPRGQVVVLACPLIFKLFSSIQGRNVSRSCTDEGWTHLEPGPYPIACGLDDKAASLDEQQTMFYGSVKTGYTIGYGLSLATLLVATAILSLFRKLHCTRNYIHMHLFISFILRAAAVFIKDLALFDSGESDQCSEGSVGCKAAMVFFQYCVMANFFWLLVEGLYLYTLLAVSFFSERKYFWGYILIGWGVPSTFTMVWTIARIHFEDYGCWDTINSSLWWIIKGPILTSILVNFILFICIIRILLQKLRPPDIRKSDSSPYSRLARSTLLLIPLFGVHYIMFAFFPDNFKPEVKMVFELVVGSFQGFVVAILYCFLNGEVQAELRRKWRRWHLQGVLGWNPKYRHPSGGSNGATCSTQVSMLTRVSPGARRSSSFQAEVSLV

Row | Structure (SMILES) | EC50 [1] | EC50 [2]
1 | CC(=O)N[C@@H](Cc1cnc[nH]1)C(=O)N[C@H]1CCC[C@@H]1C(=O)N[C@@H](CC(=O)O)C(=O)N[C@@H](C)C(=O)NC(CC(=O)N[C@@H](Cc1ccccc1)C(=O)N[C@H](C(=O)N[C@@H](CCC(=O)O)C(=O)N[C@@H](CC(N)=O)CC(=O)N[C@@H](Cc1ccc(O)cc1)C(=O)N[C@H](C(=O)N[C@@H](CCCCN)C(=O)N[C@@H](CC(C)C)C(=O)N[C@@H](CCCNC(=N)N)C(=O)NC(CCCCN)CC(=O)N[C@@H](CCC(N)=O)C(=O)N[C@@H](CC(C)C)C(=O)N[C@@H](C)C(=O)N[C@@H](C)C(=O)N[C@H]1CNC[C@@H]1C(=O)N[C@@H](CCCCN)C(=O)N[C@@H](Cc1ccc(O)cc1)C(=O)N[C@H]1CCC[C@@H]1C(=O)N[C@@H](CC(N)=O)C(=O)N[C@@H](CC(=O)O)C(=O)N[C@@H](CC(C)C)C(=O)NC(CCCCN)CC(=O)N[C@@H](CCCCN)C(=O)NCC(=O)NCCC(=O)N[C@H](C(=O)O)[C@@H](C)O)[C@@H](C)O)[C@@H](C)O)C(C)C (stereo partly drawn) (Ac-H[X1]DA[ξβ3hV]FTE[β3hN]YTKLR[ξβ3hK]QLAA[X2]KY[X1]NDL[ξβ3hK]KG[βAla]T-OH) | 1.27 nM | 293 nM
2 | CC(=O)N[C@@H](Cc1cnc[nH]1)C(=O)N[C@H]1CCC[C@@H]1C(=O)N[C@@H](CC(=O)O)C(=O)N[C@@H](C)C(=O)N[C@H]1CCC[C@@H]1C(=O)N[C@@H](Cc1ccccc1)C(=O)N[C@H](C(=O)N[C@@H](CCC(=O)O)C(=O)N[C@H]1CCC[C@@H]1C(=O)NC(CC(=O)N[C@H](C(=O)N[C@@H](CCCCN)C(=O)N[C@@H](CC(C)C)C(=O)N[C@@H](CCCNC(=N)N)C(=O)N[C@@H](CCCCN)C(=O)N[C@@H](CCC(N)=O)C(=O)NC(CC(=O)N[C@@H](C)C(=O)N[C@@H](C)C(=O)N[C@H]1CNC[C@@H]1C(=O)N[C@@H](CCCCN)C(=O)N[C@@H](Cc1ccc(O)cc1)C(=O)N[C@H]1CCC[C@@H]1C(=O)N[C@@H](CC(N)=O)C(=O)N[C@@H](CC(=O)O)C(=O)N[C@@H](CC(C)C)C(=O)NC(CCCCN)CC(=O)N[C@@H](CCCCN)C(=O)NCC(=O)NCCC(=O)N[C@H](C(=O)O)[C@@H](C)O)CC(C)C)[C@@H](C)O)Cc1ccc(O)cc1)[C@@H](C)O (stereo partly drawn) (Ac-H[X1]DA[X1]FTE[X1][ξβ3hY]TKLRKQ[ξβ3hL]AA[X2]KY[X1]NDL[ξβ3hK]KG[βAla]T-OH) | 1.17 nM | 785 nM
3 | CC[C@H](C)[C@H](NC(=O)[C@H](C)NC(=O)[C@H](CC(N)=O)NC(=O)CC(CC(C)C)NC(=O)[C@H](Cc1ccc(O)cc1)NC(=O)[C@H](CCCCN)NC(=O)[C@H](CCCCN)NC(=O)CC(NC(=O)[C@H](C)NC(=O)[C@H](CC(C)C)NC(=O)[C@H](CCC(N)=O)NC(=O)CC(CCCCN)NC(=O)[C@H](CCCNC(=N)N)NC(=O)[C@H](CC(C)C)NC(=O)[C@H](CCCNC(=N)N)NC(=O)CC(NC(=O)[C@H](Cc1ccc(O)cc1)NC(=O)[C@H](CC(N)=O)NC(=O)[C@H](CC(=O)O)NC(=O)CC(NC(=O)[C@H](Cc1ccccc1)NC(=O)[C@@H](NC(=O)[C@H](C)NC(=O)CC(CC(=O)O)NC(=O)[C@@H](Cc1ccccc1)NC(=O)[C@@H](N)Cc1cnc[nH]1)C(C)C)C(C)O)C(C)O)C(C)C)C(=O)NC(CC(=O)N[C@@H](CC(N)=O)C(=O)O)CC(C)C (stereo partly specified) | 609 nM | 912 nM
4 | CC(=O)N[C@@H](Cc1cnc[nH]1)C(=O)N[C@H]1CCC[C@@H]1C(=O)N[C@@H](CC(=O)O)C(=O)N[C@@H](C)C(=O)N[C@H]1CCC[C@@H]1C(=O)N[C@@H](Cc1ccccc1)C(=O)N[C@H](C(=O)N[C@@H](CCC(=O)O)C(=O)N[C@H]1CCC[C@@H]1C(=O)NC(CC(=O)N[C@H](C(=O)N[C@@H](CCCCN)C(=O)N[C@@H](CC(C)C)C(=O)N[C@@H](CCCNC(=N)N)C(=O)NC(CCCCN)CC(=O)N[C@@H](CCC(N)=O)C(=O)N[C@@H](CC(C)C)C(=O)N[C@@H](C)C(=O)N[C@@H](C)C(=O)N[C@H]1CNC[C@@H]1C(=O)N[C@@H](CCCCN)C(=O)N[C@@H](Cc1ccc(O)cc1)C(=O)N[C@H]1CCC[C@@H]1C(=O)N[C@@H](CC(N)=O)C(=O)N[C@@H](CC(=O)O)C(=O)N[C@@H](CC(C)C)C(=O)NC(CCCCN)CC(=O)N[C@@H](CCCCN)C(=O)NCC(=O)NCCC(=O)N[C@H](C(=O)O)[C@@H](C)O)[C@@H](C)O)Cc1ccc(O)cc1)[C@@H](C)O (stereo partly drawn) (Ac-H[X1]DA[X1]FTE[X1][ξβ3hY]TKLR[ξβ3hK]QLAA[X2]KY[X1]NDL[ξβ3hK]KG[βAla]T-OH) | > 1000 nM | 461 nM
5 | CC[C@H](C)[C@H](NC(=O)[C@H](C)NC(=O)[C@H](CC(N)=O)NC(=O)CC(CC(C)C)NC(=O)[C@H](Cc1ccc(O)cc1)NC(=O)[C@H](CCCCN)NC(=O)[C@H](CCCCN)NC(=O)CC(NC(=O)[C@H](C)NC(=O)[C@H](CC(C)C)NC(=O)[C@H](CCC(N)=O)NC(=O)CC(CCCCN)NC(=O)[C@H](CCCNC(=N)N)NC(=O)[C@H](CC(C)C)NC(=O)[C@H](CCCNC(=N)N)NC(=O)CC(NC(=O)[C@H](Cc1ccc(O)cc1)NC(=O)[C@H](CC(N)=O)NC(=O)[C@H](CC(=O)O)NC(=O)[C@@H](NC(=O)[C@H](Cc1ccccc1)NC(=O)CC(NC(=O)[C@H](C)NC(=O)[C@H](CC(=O)O)NC(=O)[C@H]1CCC[C@@H]1NC(=O)[C@@H](N)Cc1cnc[nH]1)C(C)C)[C@@H](C)O)C(C)O)C(C)C)C(=O)NC(CC(=O)N[C@@H](CC(N)=O)C(=O)O)CC(C)C (stereo partly drawn) (H-H[X1]DA[ξβ3hV]FTDNY[ξβ3hT]RLR[ξβ3hK]QLA[ξβ3hV]KKY[ξβ3hL]NAI[ξβ3hL]N-OH) | 262 nM | 4.43 nM
6 | CC(C)C[C@H](NC(=O)[C@H](CC(=O)O)NC(=O)[C@H](CC(N)=O)NC(=O)[C@H]1CCC[C@@H]1NC(=O)[C@H](Cc1ccc(O)cc1)NC(=O)[C@H](CCCCN)NC(=O)[C@H]1CNC[C@@H]1NC(=O)[C@H](C)NC(=O)[C@H](C)NC(=O)[C@H](CC(C)C)NC(=O)[C@H](CCC(N)=O)NC(=O)[C@H](CCCCN)NC(=O)[C@H](CCCNC(=N)N)NC(=O)[C@H](CC(C)C)NC(=O)[C@H](CCCCN)NC(=O)[C@@H](NC(=O)CC(Cc1ccc(O)cc1)NC(=O)CC(CC(N)=O)NC(=O)[C@H](CCC(=O)O)NC(=O)[C@@H](NC(=O)[C@H](Cc1ccccc1)NC(=O)[C@H]1CCC[C@@H]1NC(=O)[C@H](C)NC(=O)[C@H](CC(=O)O)NC(=O)[C@H]1CCC[C@@H]1NC(=O)[C@@H](N)Cc1cnc[nH]1)[C@@H](C)O)[C@@H](C)O)C(=O)NC(CCCCN)CC(=O)N[C@@H](CCCCN)C(=O)NCC(=O)NCCC(=O)N[C@H](C(=O)O)[C@@H](C)O (stereo partly drawn) (H-H[X1]DA[X1]FTE[ξβ3hN][ξβ3hY]TKLRKQLAA[X2]KY[X1]NDL[ξβ3hK]KG[βAla]T-OH) | 95.6 nM | 932 nM
7 | CC[C@H](C)[C@H](NC(=O)[C@H](C)NC(=O)[C@H](CC(N)=O)NC(=O)CC(CC(C)C)NC(=O)[C@H](Cc1ccc(O)cc1)NC(=O)[C@H](CCCCN)NC(=O)[C@H](CCCCN)NC(=O)CC(NC(=O)[C@H](C)NC(=O)[C@H](CC(C)C)NC(=O)[C@H](CCC(N)=O)NC(=O)CC(CCCCN)NC(=O)[C@H](CCCNC(=N)N)NC(=O)[C@H](CC(C)C)NC(=O)[C@H](CCCNC(=N)N)NC(=O)CC(NC(=O)[C@H](Cc1ccc(O)cc1)NC(=O)[C@H](CC(N)=O)NC(=O)[C@H](CC(=O)O)NC(=O)[C@@H](NC(=O)[C@H](Cc1ccccc1)NC(=O)[C@@H](NC(=O)[C@H](C)NC(=O)[C@H](CC(=O)O)NC(=O)[C@H]1CCC[C@@H]1NC(=O)[C@@H](N)Cc1cnc[nH]1)C(C)C)[C@@H](C)O)C(C)O)C(C)C)C(=O)NC(CC(=O)N[C@@H](CC(N)=O)C(=O)O)CC(C)C (stereo partly drawn) (H-H[X1]DAVFTDNY[ξβ3hT]RLR[ξβ3hK]QLA[ξβ3hV]KKY[ξβ3hL]NAI[ξβ3hL]N-OH) | 4900 nM | 5.66 nM
8 | CC(=O)N[C@@H](Cc1cnc[nH]1)C(=O)N[C@H]1CCC[C@@H]1C(=O)N[C@@H](CC(=O)O)C(=O)N[C@@H](C)C(=O)N[C@H](C(=O)N[C@@H](Cc1ccccc1)C(=O)N[C@H](C(=O)N[C@@H](CCC(=O)O)C(=O)N[C@@H](CC(N)=O)C(=O)N[C@@H](Cc1ccc(O)cc1)C(=O)N[C@H](C(=O)N[C@@H](CCCCN)C(=O)N[C@@H](CC(C)C)C(=O)N[C@@H](CCCNC(=N)N)C(=O)N[C@@H](CCCCN)C(=O)N[C@@H](CCC(N)=O)C(=O)N[C@@H](CC(C)C)C(=O)N[C@@H](C)C(=O)N[C@@H](C)C(=O)N[C@H]1CNC[C@@H]1C(=O)N[C@@H](CCCCN)C(=O)N[C@@H](Cc1ccc(O)cc1)C(=O)N[C@H]1CCC[C@@H]1C(=O)N[C@@H](CC(N)=O)C(=O)N[C@@H](CC(=O)O)C(=O)N[C@@H](CC(C)C)C(=O)NC(CCCCN)CC(=O)N[C@@H](CCCCN)C(=O)NCC(=O)NCCC(=O)N[C@H](C(=O)O)[C@@H](C)O)[C@@H](C)O)[C@@H](C)O)C(C)C (stereo partly drawn) (Ac-H[X1]DAVFTENYTKLRKQLAA[X2]KY[X1]NDL[ξβ3hK]KG[βAla]T-OH) | 0.593 nM | > 1000 nM

Source: ChEMBL document CHEMBL4257221, “Peptides comprising non-natural amino acids and methods of making and using the same” (2016)
